Results as given in PubChem BioAssay (NCI).
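Grown in 96-well plates, cells were treated for 48 hours with each compound at five concentrations. Insufficient inhibition: endpoint recorded as highest concentration tested. TGI: concentration producing complete growth inhibition.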

Legend:
Test in all cases: DTP human tumour cell line panel, 48 h
NCI-H522 lung = system: NCI-H522 lung
RXF 393 renal = system: RXF 393 renal
K-562 leukemia = system: K-562 leukemia
NCI-H23 lung = system: NCI-H23 lung
RPMI-8226 leukemia = system: RPMI-8226 leukemia
XF 498 CNS = system: XF 498 CNS
HOP-18 NSCLC = system: HOP-18 NSCLC
M14 melanoma = system: M14 melanoma
DMS 273 small cell lung = system: DMS 273 small cell lung
HL-60(TB) leukemia = system: HL-60(TB) leukemia
SNB-75 CNS = system: SNB-75 CNS
HCT-116 colon = system: HCT-116 colon
SNB-19 CNS = system: SNB-19 CNS
LXFL 529 NSCLC = system: LXFL 529 NSCLC
SN12C renal = system: SN12C renal
U251 CNS = system: U251 CNS
SF-539 CNS = system: SF-539 CNS
786-0 renal = system: 786-0 renal
NCI-H226 lung = system: NCI-H226 lung
DLD-1 colon = system: DLD-1 colon
HOP-62 NSCLC = system: HOP-62 NSCLC
LOX IMVI melanoma = system: LOX IMVI melanoma
KM20L2 colon = system: KM20L2 colon
CCRF-CEM leukemia = system: CCRF-CEM leukemia
MOLT-4 leukemia = system: MOLT-4 leukemia
NCI-H460 lung = system: NCI-H460 lung
SK-MEL-28 melanoma = system: SK-MEL-28 melanoma
HCC-2998 colon = system: HCC-2998 colon
SNB-78 CNS = system: SNB-78 CNS
UO-31 renal = system: UO-31 renal
COLO 205 colon = system: COLO 205 colon
SK-MEL-5 melanoma = system: SK-MEL-5 melanoma
HCT-15 colon = system: HCT-15 colon
SF-268 CNS = system: SF-268 CNS
UACC-257 melanoma = system: UACC-257 melanoma
UACC-62 melanoma = system: UACC-62 melanoma
HT29 colon = system: HT29 colon
OVCAR-3 ovarian = system: OVCAR-3 ovarian
SW-620 colon = system: SW-620 colon
M19-MEL melanoma = system: M19-MEL melanoma
KM12 colon = system: KM12 colon
A498 renal = system: A498 renal
SK-MEL-2 melanoma = system: SK-MEL-2 melanoma
DMS 114 small cell lung = system: DMS 114 small cell lung
MALME-3M melanoma = system: MALME-3M melanoma
A549 NSCLC = system: A549 NSCLC
SF-295 CNS = system: SF-295 CNS
ACHN renal = system: ACHN renal
CAKI-1 renal = system: CAKI-1 renal
TK-10 renal = system: TK-10 renal
IGROV1 ovarian = system: IGROV1 ovarian
OVCAR-5 ovarian = system: OVCAR-5 ovarian
OVCAR-4 ovarian = system: OVCAR-4 ovarian
OVCAR-8 ovarian = system: OVCAR-8 ovarian
SK-OV-3 ovarian = system: SK-OV-3 ovarian
HOP-92 NSCLC = system: HOP-92 NSCLC
EKVX NSCLC = system: EKVX NSCLC
SR leukemia = system: SR leukemia

## O=c1oc(-c2ccccc2)cn1-c1ccccc1
NCI-H522 lung
  TGI: > 100 µM
RXF 393 renal
  TGI: > 100 µM
K-562 leukemia
  TGI: > 100 µM
NCI-H23 lung
  TGI: > 100 µM
RPMI-8226 leukemia
  TGI: > 100 µM
XF 498 CNS
  TGI: > 100 µM
HOP-18 NSCLC
  TGI: > 100 µM
M14 melanoma
  TGI: > 100 µM
DMS 273 small cell lung
  TGI: > 100 µM
HL-60(TB) leukemia
  TGI: > 100 µM
SNB-75 CNS
  TGI: > 100 µM
HCT-116 colon
  TGI: > 100 µM
SNB-19 CNS
  TGI: > 100 µM
LXFL 529 NSCLC
  TGI: > 100 µM
SN12C renal
  TGI: > 100 µM
U251 CNS
  TGI: > 100 µM
SF-539 CNS
  TGI: > 100 µM
786-0 renal
  TGI: > 100 µM
NCI-H226 lung
  TGI: > 100 µM
DLD-1 colon
  TGI: > 100 µM
HOP-62 NSCLC
  TGI: > 100 µM
LOX IMVI melanoma
  TGI: > 100 µM
KM20L2 colon
  TGI: > 100 µM
CCRF-CEM leukemia
  TGI: > 100 µM
MOLT-4 leukemia
  TGI: > 100 µM
NCI-H460 lung
  TGI: > 100 µM
SK-MEL-28 melanoma
  TGI: > 100 µM
HCC-2998 colon
  TGI: > 100 µM
SNB-78 CNS
  TGI: > 100 µM

## CC1(c2cccc(C3CC4(CCC3=O)OCCCCO4)c2)OCCO1 (stereo not given)
NCI-H522 lung
  TGI: > 100 µM
UO-31 renal
  TGI: > 100 µM
COLO 205 colon
  TGI: > 100 µM
SK-MEL-5 melanoma
  TGI: > 100 µM
K-562 leukemia
  TGI: > 100 µM
HCT-15 colon
  TGI: > 100 µM
NCI-H23 lung
  TGI: > 100 µM
RPMI-8226 leukemia
  TGI: > 100 µM
SF-268 CNS
  TGI: > 100 µM
UACC-257 melanoma
  TGI: > 100 µM
HOP-18 NSCLC
  TGI: > 100 µM
M14 melanoma
  TGI: > 100 µM
UACC-62 melanoma
  TGI: > 100 µM
HT29 colon
  TGI: > 100 µM
OVCAR-3 ovarian
  TGI: > 100 µM
SW-620 colon
  TGI: > 100 µM
DMS 273 small cell lung
  TGI: > 100 µM
M19-MEL melanoma
  TGI: > 100 µM
KM12 colon
  TGI: > 100 µM
HL-60(TB) leukemia
  TGI: > 100 µM
A498 renal
  TGI: > 100 µM
SK-MEL-2 melanoma
  TGI: > 100 µM
DMS 114 small cell lung
  TGI: > 100 µM
MALME-3M melanoma
  TGI: > 100 µM
A549 NSCLC
  TGI: > 100 µM
SF-295 CNS
  TGI: > 100 µM
SNB-75 CNS
  TGI: > 100 µM
HCT-116 colon
  TGI: > 100 µM
SNB-19 CNS
  TGI: > 100 µM
ACHN renal
  TGI: > 100 µM
LXFL 529 NSCLC
  TGI: > 100 µM
CAKI-1 renal
  TGI: > 100 µM
SN12C renal
  TGI: > 100 µM
U251 CNS
  TGI: > 100 µM
SF-539 CNS
  TGI: > 100 µM
786-0 renal
  TGI: > 100 µM
NCI-H226 lung
  TGI: > 100 µM
DLD-1 colon
  TGI: > 100 µM
TK-10 renal
  TGI: > 100 µM
IGROV1 ovarian
  TGI: > 100 µM
HOP-62 NSCLC
  TGI: > 100 µM
LOX IMVI melanoma
  TGI: > 100 µM
OVCAR-5 ovarian
  TGI: > 100 µM
OVCAR-4 ovarian
  TGI: > 100 µM
KM20L2 colon
  TGI: > 100 µM
OVCAR-8 ovarian
  TGI: > 100 µM
SK-OV-3 ovarian
  TGI: > 100 µM
CCRF-CEM leukemia
  TGI: > 100 µM
MOLT-4 leukemia
  TGI: > 100 µM
NCI-H460 lung
  TGI: > 100 µM
SK-MEL-28 melanoma
  TGI: > 100 µM
HCC-2998 colon
  TGI: > 100 µM
SNB-78 CNS
  TGI: > 100 µM

## COc1cc(NS(=O)(=O)c2ccc(C)cc2)c2nccnc2c1
NCI-H522 lung
  TGI: 70.2 µM
UO-31 renal
  TGI: > 100 µM
COLO 205 colon
  TGI: 90.1 µM
RXF 393 renal
  TGI: 64.7 µM
SK-MEL-5 melanoma
  TGI: 63.7 µM
K-562 leukemia
  TGI: > 100 µM
HCT-15 colon
  TGI: > 100 µM
NCI-H23 lung
  TGI: > 100 µM
RPMI-8226 leukemia
  TGI: > 100 µM
XF 498 CNS
  TGI: > 100 µM
SF-268 CNS
  TGI: 93.7 µM
UACC-257 melanoma
  TGI: > 100 µM
HOP-18 NSCLC
  TGI: > 100 µM
M14 melanoma
  TGI: 35.1 µM
UACC-62 melanoma
  TGI: 34.6 µM
HT29 colon
  TGI: > 100 µM
OVCAR-3 ovarian
  TGI: > 100 µM
SW-620 colon
  TGI: > 100 µM
DMS 273 small cell lung
  TGI: > 100 µM
HOP-92 NSCLC
  TGI: > 100 µM
M19-MEL melanoma
  TGI: 55 µM
KM12 colon
  TGI: > 100 µM
HL-60(TB) leukemia
  TGI: 51.7 µM
A498 renal
  TGI: > 100 µM
SK-MEL-2 melanoma
  TGI: 54.5 µM
DMS 114 small cell lung
  TGI: 40.8 µM
MALME-3M melanoma
  TGI: > 100 µM
A549 NSCLC
  TGI: > 100 µM
SF-295 CNS
  TGI: > 100 µM
SNB-75 CNS
  TGI: 78.1 µM
SNB-19 CNS
  TGI: > 100 µM
ACHN renal
  TGI: 80.8 µM
LXFL 529 NSCLC
  TGI: > 100 µM
CAKI-1 renal
  TGI: > 100 µM
SN12C renal
  TGI: > 100 µM
U251 CNS
  TGI: 89.3 µM
SF-539 CNS
  TGI: 83.8 µM
786-0 renal
  TGI: > 100 µM
NCI-H226 lung
  TGI: > 100 µM
DLD-1 colon
  TGI: > 100 µM
TK-10 renal
  TGI: > 100 µM
IGROV1 ovarian
  TGI: > 100 µM
HOP-62 NSCLC
  TGI: > 100 µM
LOX IMVI melanoma
  TGI: > 100 µM
OVCAR-5 ovarian
  TGI: > 100 µM
OVCAR-4 ovarian
  TGI: > 100 µM
KM20L2 colon
  TGI: > 100 µM
OVCAR-8 ovarian
  TGI: > 100 µM
EKVX NSCLC
  TGI: > 100 µM
SR leukemia
  TGI: > 100 µM
SK-OV-3 ovarian
  TGI: > 100 µM
CCRF-CEM leukemia
  TGI: 81.2 µM
MOLT-4 leukemia
  TGI: 52.3 µM
NCI-H460 lung
  TGI: > 100 µM
SK-MEL-28 melanoma
  TGI: > 100 µM
HCC-2998 colon
  TGI: > 100 µM

## COC(=O)C(=O)CC(=O)CCn1[nH]c(=O)c(Cl)c(Cl)c1=O
NCI-H522 lung
  TGI: > 100 µM
UO-31 renal
  TGI: > 100 µM
COLO 205 colon
  TGI: > 100 µM
RXF 393 renal
  TGI: > 100 µM
SK-MEL-5 melanoma
  TGI: > 100 µM
K-562 leukemia
  TGI: > 100 µM
HCT-15 colon
  TGI: > 100 µM
NCI-H23 lung
  TGI: > 100 µM
XF 498 CNS
  TGI: > 100 µM
SF-268 CNS
  TGI: > 100 µM
UACC-257 melanoma
  TGI: > 100 µM
M14 melanoma
  TGI: > 100 µM
UACC-62 melanoma
  TGI: > 100 µM
HT29 colon
  TGI: > 100 µM
OVCAR-3 ovarian
  TGI: > 100 µM
SW-620 colon
  TGI: > 100 µM
DMS 273 small cell lung
  TGI: > 100 µM
HOP-92 NSCLC
  TGI: > 100 µM
M19-MEL melanoma
  TGI: > 100 µM
KM12 colon
  TGI: > 100 µM
HL-60(TB) leukemia
  TGI: > 100 µM
A498 renal
  TGI: > 100 µM
SK-MEL-2 melanoma
  TGI: > 100 µM
DMS 114 small cell lung
  TGI: > 100 µM
MALME-3M melanoma
  TGI: > 100 µM
A549 NSCLC
  TGI: > 100 µM
SF-295 CNS
  TGI: > 100 µM
SNB-75 CNS
  TGI: > 100 µM
HCT-116 colon
  TGI: > 100 µM
SNB-19 CNS
  TGI: > 100 µM
ACHN renal
  TGI: > 100 µM
LXFL 529 NSCLC
  TGI: > 100 µM
CAKI-1 renal
  TGI: > 100 µM
SN12C renal
  TGI: > 100 µM
U251 CNS
  TGI: > 100 µM
SF-539 CNS
  TGI: > 100 µM
786-0 renal
  TGI: > 100 µM
NCI-H226 lung
  TGI: > 100 µM
DLD-1 colon
  TGI: > 100 µM
TK-10 renal
  TGI: > 100 µM
IGROV1 ovarian
  TGI: > 100 µM
HOP-62 NSCLC
  TGI: > 100 µM
LOX IMVI melanoma
  TGI: > 100 µM
OVCAR-5 ovarian
  TGI: > 100 µM
OVCAR-4 ovarian
  TGI: > 100 µM
KM20L2 colon
  TGI: > 100 µM
OVCAR-8 ovarian
  TGI: > 100 µM
EKVX NSCLC
  TGI: > 100 µM
NCI-H460 lung
  TGI: > 100 µM
SK-MEL-28 melanoma
  TGI: > 100 µM
HCC-2998 colon
  TGI: > 100 µM
SNB-78 CNS
  TGI: > 100 µM
